From patent US12077537B2 (Gilead Sciences, Inc., priority 2020, dated 2024)

The compounds below were run on HIV-IIIb (assay: Antiviral assay in MT4 cells). Settings: Human immunodeficiency virus 1, MT4, 120 h; MT-4 cells mixed with HIV-IIIb at m.o.i. 0.003; 5 days at 37° C.; CellTiter-Glo luminescence; 50% decrease in signal, a measure of HIV-1 replication.
Assay type: cell-based
Summary of the method: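 Compound, tested at ten 3-fold dilutions in quadruplicate in 10% FBS medium, received MT-4 cells pre-mixed 1 hour with HIV-IIIb (m.o.i. 0.003). Protection was read as luminescent cell viability (CellTiter-Glo) after 5 days' culture at 37° C.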
In the case of `Cn1nc(N)c2cccc(-c3cc4sc(N5CC(C)(O)C5)nc4nc3[C@H](Cc3cc(F)cc(F)c3)NC(=O)Cn3nc(C(F)F)c4c3C3CC3CC4)c21` (stereo partly drawn) [Compound 50, N—((S)-1-(6-(3-amino-1-methyl-1H-indazol-7-yl)-2-(3-hydroxy-3-methylazetidin-1-yl)thiazolo[4,5-b]pyridin-5-yl)-2-(3,5-difluorophenyl)ethyl)-2-(3-(difluoromethyl)-5,5a,6,6a-tetrahydrocyclopropa[g]indazol-1(4H)-yl)acetamide], the EC50 is reported as 1.3 nM.
Work on `Cn1nc(N)c2cccc(-c3cc4sc(NCC(C)(C)O)nc4nc3[C@H](Cc3cc(F)cc(F)c3)NC(=O)Cn3nc(C(F)(F)F)c4c3C(F)(F)[C@@H]3C[C@H]43)c21` [Compound 51, N—((S)-1-(6-(3-amino-1-methyl-1H-indazol-7-yl)-2-((2-hydroxy-2-methylpropyl)amino)thiazolo[4,5-b]pyridin-5-yl)-2-(3,5-difluorophenyl)ethyl)-2-((3bS,4aR)-5,5-difluoro-3-(trifluoromethyl)-3b,4,4a,5-tetrahydro-1H-cyclopropa[3,4]cyclopenta[1,2-c]pyrazol-1-yl)acetamide] yielded an EC50 of 9.7 nM.
`Cn1nc(NS(C)(=O)=O)c2cccc(-c3cc4sc(NCC(C)(C)O)nc4nc3[C@H](Cc3cc(F)cc(F)c3)NC(=O)Cn3nc(C(F)(F)F)c4c3C(F)(F)[C@@H]3C[C@H]43)c21` [Compound 52, 2-((3bS,4aR)-5,5-difluoro-3-(trifluoromethyl)-3b,4,4a,5-tetrahydro-1H-cyclopropa[3,4]cyclopenta[1,2-c]pyrazol-1-yl)-N—((S)-2-(3,5-difluorophenyl)-1-(2-((2-hydroxy-2-methylpropyl)amino)-6-(1-methyl-3-(methylsulfonamido)-1H-indazol-7-yl)thiazolo[4,5-b]pyridin-5-yl)ethyl)acetamide] was tested, and the EC50 was 9.6 nM.
`Cn1nc(NS(C)(=O)=O)c2cccc(-c3cc4sc(N5CC(C)(O)C5)nc4nc3[C@H](Cc3cc(F)cc(F)c3)NC(=O)Cn3nc(C(F)(F)F)c4c3C(F)(F)[C@@H]3C[C@H]43)c21` [Compound 53, 2-((3bS,4aR)-5,5-difluoro-3-(trifluoromethyl)-3b,4,4a,5-tetrahydro-1H-cyclopropa[3,4]cyclopenta[1,2-c]pyrazol-1-yl)-N—((S)-2-(3,5-difluorophenyl)-1-(2-(3-hydroxy-3-methylazetidin-1-yl)-6-(1-methyl-3-(methylsulfonamido)-1H-indazol-7-yl)thiazolo[4,5-b]pyridin-5-yl)ethyl)acetamide] showed an EC50 of 20.4 nM.
`Cc1c(-c2cc3sc(NCC(C)(C)O)nc3nc2[C@H](Cc2cc(F)cc(F)c2)NC(=O)Cn2nc(C(F)(F)F)c3c2C(F)(F)[C@@H]2C[C@H]32)ccc2n[nH]c(=O)n12` [Compound 54, 2-((3bS,4aR)-5,5-difluoro-3-(trifluoromethyl)-3b,4,4a,5-tetrahydro-1H-cyclopropa[3,4]cyclopenta[1,2-c]pyrazol-1-yl)-N—((S)-2-(3,5-difluorophenyl)-1-(2-((2-hydroxy-2-methylpropyl)amino)-6-(5-methyl-3-oxo-2,3-dihydro-[1,2,4]triazolo[4,3-a]pyridin-6-yl)thiazolo[4,5-b]pyridin-5-yl)ethyl)acetamide] gave an EC50 of 26.2 nM.
For `Cn1nc(NS(C)(=O)=O)c2cccc(-c3cc4sc(NCC(C)(C)O)nc4nc3[C@H](Cc3cc(F)cc(F)c3)NC(=O)Cn3nc(C(F)F)c4c3C(F)(F)[C@@H]3C[C@H]43)c21` [Compound 55, 2-((3bS,4aR)-3-(difluoromethyl)-5,5-difluoro-3b,4,4a,5-tetrahydro-1H-cyclopropa[3,4]cyclopenta[1,2-c]pyrazol-1-yl)-N—((S)-2-(3,5-difluorophenyl)-1-(2-((2-hydroxy-2-methylpropyl)amino)-6-(1-methyl-3-(methylsulfonamido)-1H-indazol-7-yl)thiazolo[4,5-b]pyridin-5-yl)ethyl)acetamide], the EC50 was 13.5 nM.
With `Cn1nc(NS(C)(=O)=O)c2cccc(-c3cc4sc(NCC(C)(C)O)nc4nc3[C@H](Cc3cc(F)cc(F)c3)NC(=O)Cn3nc(C(F)F)c4c3C(F)(F)CCC4(F)F)c21` [Compound 56, (S)-2-(3-(difluoromethyl)-4,4,7,7-tetrafluoro-4,5,6,7-tetrahydro-1H-indazol-1-yl)-N-(2-(3,5-difluorophenyl)-1-(2-((2-hydroxy-2-methylpropyl)amino)-6-(1-methyl-3-(methylsulfonamido)-1H-indazol-7-yl)thiazolo[4,5-b]pyridin-5-yl)ethyl)acetamide] the EC50 was 55.8 nM.
`Cn1nc(N)c2cccc(-c3cc4sc(NCC(C)(C)O)nc4nc3[C@H](Cc3cc(F)cc(F)c3)NC(=O)Cn3nc(C(F)F)c4c3C(F)(F)[C@@H]3C[C@H]43)c21` [Compound 57, N—((S)-1-(6-(3-amino-1-methyl-1H-indazol-7-yl)-2-((2-hydroxy-2-methylpropyl)amino)thiazolo[4,5-b]pyridin-5-yl)-2-(3,5-difluorophenyl)ethyl)-2-((3bS,4aR)-3-(difluoromethyl)-5,5-difluoro-3b,4,4a,5-tetrahydro-1H-cyclopropa[3,4]cyclopenta[1,2-c]pyrazol-1-yl)acetamide] was tested, and the EC50 was 13 nM.
With `Cn1nc(N)c2cccc(-c3cc4sc(N5CC(C)(O)C5)nc4nc3[C@H](Cc3cc(F)cc(F)c3)NC(=O)Cn3nc(C(F)(F)F)c4c3C(F)(F)[C@@H]3C[C@H]43)c21` [Compound 58, N—((S)-1-(6-(3-amino-1-methyl-1H-indazol-7-yl)-2-(3-hydroxy-3-methylazetidin-1-yl)thiazolo[4,5-b]pyridin-5-yl)-2-(3,5-difluorophenyl)ethyl)-2-((3bS,4aR)-5,5-difluoro-3-(trifluoromethyl)-3b,4,4a,5-tetrahydro-1H-cyclopropa[3,4]cyclopenta[1,2-c]pyrazol-1-yl)acetamide] the EC50 was 14.7 nM.
`Cn1nc(N)c2cccc(-c3cc4sc(N5CC(C)(O)C5)nc4nc3[C@H](Cc3cc(F)cc(F)c3)NC(=O)Cn3nc(C(F)F)c4c3C(F)(F)[C@@H]3C[C@H]43)c21` [Compound 59, N—((S)-1-(6-(3-amino-1-methyl-1H-indazol-7-yl)-2-(3-hydroxy-3-methylazetidin-1-yl)thiazolo[4,5-b]pyridin-5-yl)-2-(3,5-difluorophenyl)ethyl)-2-((3bS,4aR)-3-(difluoromethyl)-5,5-difluoro-3b,4,4a,5-tetrahydro-1H-cyclopropa[3,4]cyclopenta[1,2-c]pyrazol-1-yl)acetamide] gave an EC50 of 16.3 nM.
`Cn1nc(N)c2cccc(-c3cc4sc(NCC(C)(C)O)nc4nc3[C@H](Cc3cc(F)cc(F)c3)NC(=O)Cn3nc(C(F)F)c4c3C(F)(F)CCC4(F)F)c21` [Compound 60, (S)—N-(1-(6-(3-amino-1-methyl-1H-indazol-7-yl)-2-((2-hydroxy-2-methylpropyl)amino)thiazolo[4,5-b]pyridin-5-yl)-2-(3,5-difluorophenyl)ethyl)-2-(3-(difluoromethyl)-4,4,7,7-tetrafluoro-4,5,6,7-tetrahydro-1H-indazol-1-yl)acetamide] was tested, and the EC50 was 60 nM.
Compound `CCS(=O)(=O)Nc1nn(C)c2c(-c3cc4sc(NCC(C)(C)O)nc4nc3[C@H](Cc3cc(F)cc(F)c3)NC(=O)Cn3nc(C(F)F)c4c3C(F)(F)[C@@H]3C[C@H]43)cccc12` [Compound 61, 2-((3bS,4aR)-3-(difluoromethyl)-5,5-difluoro-3b,4,4a,5-tetrahydro-1H-cyclopropa[3,4]cyclopenta[1,2-c]pyrazol-1-yl)-N—((S)-2-(3,5-difluorophenyl)-1-(6-(3-(ethylsulfonamido)-1-methyl-1H-indazol-7-yl)-2-((2-hydroxy-2-methylpropyl)amino)thiazolo[4,5-b]pyridin-5-yl)ethyl)acetamide] has an EC50 of 10 nM.
`Cn1nc(NS(=O)(=O)C2CC2)c2cccc(-c3cc4sc(NCC(C)(C)O)nc4nc3[C@H](Cc3cc(F)cc(F)c3)NC(=O)Cn3nc(C(F)F)c4c3C(F)(F)[C@@H]3C[C@H]43)c21` [Compound 62, N—((S)-1-(6-(3-(cyclopropanesulfonamido)-1-methyl-1H-indazol-7-yl)-2-((2-hydroxy-2-methylpropyl)amino)thiazolo[4,5-b]pyridin-5-yl)-2-(3,5-difluorophenyl)ethyl)-2-((3bS,4aR)-3-(difluoromethyl)-5,5-difluoro-3b,4,4a,5-tetrahydro-1H-cyclopropa[3,4]cyclopenta[1,2-c]pyrazol-1-yl)acetamide] gave an EC50 of 7.9 nM.
For `CCS(=O)(=O)Nc1nn(C)c2c(-c3cc4sc(NCC(C)(C)O)nc4nc3[C@H](Cc3cc(F)cc(F)c3)NC(=O)Cn3nc(C(F)(F)F)c4c3C(F)(F)[C@@H]3C[C@H]43)cccc12` [Compound 63, 2-((3bS,4aR)-5,5-difluoro-3-(trifluoromethyl)-3b,4,4a,5-tetrahydro-1H-cyclopropa[3,4]cyclopenta[1,2-c]pyrazol-1-yl)-N—((S)-2-(3,5-difluorophenyl)-1-(6-(3-(ethylsulfonamido)-1-methyl-1H-indazol-7-yl)-2-((2-hydroxy-2-methylpropyl)amino)thiazolo[4,5-b]pyridin-5-yl)ethyl)acetamide], the EC50 was 7.2 nM.
Work on `CC(C)N1CCN(c2nc3nc([C@H](Cc4cc(F)cc(F)c4)NC(=O)Cn4nc(C(F)(F)F)c5c4C(F)(F)[C@@H]4C[C@H]54)c(-c4cccc5c(NS(C)(=O)=O)nn(C)c45)cc3s2)CC1` [Compound 64, 2-((3bS,4aR)-5,5-difluoro-3-(trifluoromethyl)-3b,4,4a,5-tetrahydro-1H-cyclopropa[3,4]cyclopenta[1,2-c]pyrazol-1-yl)-N—((S)-2-(3,5-difluorophenyl)-1-(2-(4-isopropylpiperazin-1-yl)-6-(1-methyl-3-(methylsulfonamido)-1H-indazol-7-yl)thiazolo[4,5-b]pyridin-5-yl)ethyl)acetamide] yielded an EC50 of 9.2 nM.
